# Values of other authors as cited in article PMC8398451, “Molecular Engineering of Curcumin, an Active Constituent of Curcuma longa L. (Turmeric) of the Family Zingiberaceae with Improved Antiproliferative Activity” (Plants, 2021).
# Assays:
# Design in all cases: method as in earlier work
# Conditions in all cases: cited from earlier work; for Mean % GI: 10 µM, retrieved from NCI data-ware
# [1] = system: Non-Small Cell Lung Cancer cell line panel
# [2] = system: Prostate Cancer cell line panel
# [3] = system: CNS Cancer cell line panel
# Leukemia cell line panel = system: Leukemia cell line panel
# [4] = system: Breast Cancer cell line panel
# Melanoma cell line panel = system: Melanoma cell line panel
# [5] = system: Ovarian Cancer cell line panel
# [6] = system: Renal Cancer cell line panel
# [7] = system: Colon Cancer cell line panel
# [8] = five-dose assay, curcumin NCI data
Structure (SMILES),Mean % GI [1],"GI50 [1, 8]",Mean % GI [2],"GI50 [2, 8]",Mean % GI [3],"GI50 [3, 8]",Mean % GI (Leukemia cell line panel),GI50 (Leukemia cell line panel; [8]),Mean % GI [4],"GI50 [4, 8]",Mean % GI (Melanoma cell line panel),GI50 (Melanoma cell line panel; [8]),Mean % GI [5],"GI50 [5, 8]",Mean % GI [6],"GI50 [6, 8]",Mean % GI [7],"GI50 [7, 8]"
"COc1cc(/C=C/C(=O)CC(=O)/C=C/c2ccc(O)c(OC)c2)ccc1O [Cur, Curcumin]",49.27%,9.2 µM,61.3%,11.2 µM,60.75%,5.8 µM,97.76%,3.7 µM,56.1%,8.1 µM,54.63%,5.9 µM,44.66%,9.1 µM,45.35%,8.9 µM,95.76%,4.7 µM
COc1cc2ncnc(Nc3ccc(F)c(Cl)c3)c2cc1OCCCN1CCOCC1 [Gefitinib],63.97%,,59.6%,,46.13%,,79.68%,,52.88%,,44.99%,,60.93%,,77.89%,,52.19%,
